Measured values published in publication PMC8196580, “Identification of Kaurane-Type Diterpenes as Inhibitors of Leishmania Pteridine Reductase I” (Molecules, 2021).
Read-outs that look alike come from different tables or passages of the source.

Key:
[1] = tested on: L. major; test: ChEMBL dataset of pIC50 values against L. major used for the RF model (Table S1); format: cell-based, Leishmania major; note: call rule not given here
[2] = tested on: L. major; parameters: method as in ChEMBL; details: ref ChEMBL, cited from earlier work
[3] = Active/Inactive class assigned to the ChEMBL pIC50 value for Random forest model construction, ref ChEMBL
[4] = ChemBL structures with pIC50 values used for Random forest model construction, L. major
[5] = Active/Inactive class assigned to ChemBL structures for Random forest model construction (Table S1)
[6] = ChemBL structures with pIC50 values used for Random forest model construction (Table S1)

SMILES	Outcome [1, 3]	pIC50 Value [2, 4]	Outcome [1, 5]	pIC50 Value [2, 6]
O=[N+]([O-])c1ccc(-c2nnc(NCc3cn(Cc4ccc(Cl)cc4Cl)nn3)s2)o1 [CHEMBL1951534]	Inactive	4.70	–	–
Cn1c([N+](=O)[O-])cnc1-c1nnc(N2CCN(C(=O)c3ccc(Br)s3)CC2)s1 [CHEMBL520309]	Inactive	4.80	–	–
Cc1ccc(C2(c3ccc(C)cc3)C(=O)N(c3ccccc3)C2c2cn(C)c3ccccc23)cc1 (stereo not shown) [CHEMBL2071564]	–	–	Active	5.91
COc1cc(OC)c2c(C)[n+](-c3ccccc3)c(C)cc2c1.[Cl-] [CHEMBL3706859]	Inactive	4.33	–	–
O=C(c1ccc(Cl)s1)N1CCN(c2nnc(-c3ccc([N+](=O)[O-])o3)s2)CC1 [CHEMBL516307]	Inactive	4.93	–	–
C/C(=N/NC(N)=S)c1ccc(OCc2cn(-c3ccc(S(N)(=O)=O)cc3)nn2)cc1 [CHEMBL4177394]	Active	5.08	–	–
Cc1ccc2cc(C3CC(c4ccc(I)s4)=NN3)c(Cl)nc2c1 (stereo not shown) [CHEMBL2235716]	–	–	Active	5.71
Clc1cccc(-c2nc3ccccn3c2-c2ccccc2)c1 [CHEMBL2151878]	–	–	Active	5.36
COc1cc([N+](=O)[O-])ccc1COP(N)(=O)N(CCCl)CCCl (stereo not shown) [CHEMBL1256965]	Inactive	4.81	–	–
CN(C)c1nccn2c(I)c(-c3ccc(F)cc3)nc12 [CHEMBL3634361]	Inactive	4.00	–	–
O=C(CCl)N1c2ccccc2Sc2ccc(Cl)cc21 [CHEMBL290253]	Inactive	4.98	–	–
Fc1ccc(-c2nc3c(NCCN4CCOCC4)nccn3c2I)cc1 [CHEMBL3634362]	–	–	Active	5.55
Nc1ccc2ncnc(Nc3ccc(OCc4cccc(F)c4)c(Cl)c3)c2c1 [CHEMBL3637893]	Inactive	4.98	–	–
Cc1cc(C2=NNC(c3cc4cccc(C)c4nc3Cl)C2)c(C)s1 (stereo not shown) [CHEMBL2235721]	–	–	Active	5.58
Cn1cc(C2N(c3ccc(Cl)cc3)C(=O)C2(c2ccccc2)c2ccccc2)c2ccccc21 (stereo not shown) [CHEMBL2071563]	–	–	Active	5.78
CC(=O)C1=C(CNc2ccc(C(=O)/C=C/c3ccc(Cl)cc3)cc2)N(C)C(=O)NC1c1ccccc1 (stereo not shown) [CHEMBL3785674]	–	–	Active	5.97
COc1ccccc1C(=O)N/N=C/c1ccccc1O [CHEMBL2382037]	Inactive	4.45	–	–
COc1ccccc1-c1nnc(-c2ccc(C(=O)N/N=C/c3ccccc3F)cc2)o1 [CHEMBL4060698]	Active	5.29	–	–
CC(=O)N1CCN(c2nnc(-c3ccc([N+](=O)[O-])o3)s2)CC1 [CHEMBL192375]	–	–	Active	5.96
COc1ccc(/C=N/NC(N)=S)cc1OCc1cn(CC(=O)c2ccc(C)cc2)nn1 [CHEMBL4173573]	–	–	Active	5.66
Cc1ccc2cc(C3CC(c4ccc(Br)s4)=NN3)c(Cl)nc2c1 (stereo not shown) [CHEMBL2235715]	–	–	Active	5.64

SMILES	Outcome [1, 3]	pIC50 Value [2, 4]	Outcome [1, 5]	pIC50 Value [2, 6]
CC(=O)C1=C(CNc2ccc(C3=NNC(c4ccc(O)cc4)C3)cc2)N(C)C(=O)NC1c1ccccc1 (stereo not shown) [CHEMBL3786468]	–	–	Active	6.02
CN(C)CCNc1nccn2c(I)c(-c3ccc(F)cc3)nc12 [CHEMBL3634360]	Inactive	4.61	–	–
CCN(CC)c1ccc(Nc2c3ccccc3nc3ccccc23)cc1 [CHEMBL315530]	–	–	Active	6.40
O=C(c1cccs1)N1CCN(c2nnc(-c3ccc([N+](=O)[O-])s3)s2)CC1 [CHEMBL464864]	Inactive	4.55	–	–
C[n+]1ccc(-c2c3nc(c(-c4cc[n+](C)cc4)c4ccc([nH]4)c(-c4cc[n+](C)cc4)c4nc(c(-c5cc[n+](C)cc5)c5ccc2[nH]5)C=C4)C=C3)cc1.Cc1ccc(S(=O)(=O)[O-])cc1.Cc1ccc(S(=O)(=O)[O-])cc1.Cc1ccc(S(=O)(=O)[O-])cc1.Cc1ccc(S(=O)(=O)[O-])cc1 [CHEMBL2170855]	Inactive	4.68	–	–
O=[N+]([O-])c1ccc2nc(-c3cccnc3)[nH]c2c1 [CHEMBL159327]	–	–	Active	5.48
c1ccc(-c2nc3ccccn3c2-c2ccccc2)cc1 [CHEMBL1719415]	Inactive	4.65	–	–
O=C(CBr)N1c2ccccc2Oc2ccc(Cl)cc21 [CHEMBL3759174]	Inactive	4.00	–	–
Nc1ccc(-c2c(-c3ccccc3)nc3ccccn23)cc1 [CHEMBL2151863]	Inactive	4.37	–	–
COc1ccc2c(c1)C=C(/C=C/C(=O)c1ccc(Cl)c(Cl)c1)CO2 [CHEMBL3329270]	–	–	Active	6.00
CC(C)N1CN(CC(=O)O)CSC1=S [CHEMBL4277354]	Inactive	3.86	–	–
CC(Cl)C(=O)N1c2ccccc2Oc2ccccc21 (stereo not shown) [CHEMBL3759769]	Inactive	4.00	–	–
Cn1cc(/C=N/c2ccc(Cl)cc2)c2ccccc21 [CHEMBL2071555]	–	–	Active	5.67
CCn1nc(C)cc1-c1nnc2sc(Cc3c(F)cccc3Cl)nn12 [CHEMBL1256857]	Inactive	4.00	–	–
Cc1ccc(/N=C/c2cn(C)c3ccccc23)cc1 [CHEMBL2071553]	–	–	Active	5.58
O=C(/C=C/c1ccc(-n2ccnc2)cc1)c1ccc(Cl)c(Cl)c1 [CHEMBL570738]	–	–	Active	5.54
CCCCCCNc1ccc(Nc2c3ccc(Cl)cc3nc3ccc(OC)cc23)cc1OC [CHEMBL89400]	–	–	Active	6.30
COc1ccccc1C(=O)N/N=C/c1ccc(OC)c(O)c1I [CHEMBL2382052]	Inactive	4.20	–	–
CN(C)Cc1ccc(Nc2c3ccccc3nc3ccccc23)cc1 [CHEMBL290441]	–	–	Active	6.00
O=C(CCl)N1c2ccccc2Oc2ccc(C(F)(F)F)cc21 [CHEMBL3759243]	Active	5.02	–	–
Cn1c([N+](=O)[O-])cnc1-c1nnc(N2CCN(C(=O)c3ccc(Cl)s3)CC2)s1 [CHEMBL521458]	Active	5.03	–	–

SMILES	Outcome [1, 3]	pIC50 Value [2, 4]	Outcome [1, 5]	pIC50 Value [2, 6]
CSc1ccc(Nc2ncnc3ccc([N+](=O)[O-])cc23)cc1 [CHEMBL3758748]	–	–	Active	5.73
COc1ccc(C2NC(=O)NC(C)=C2C(C)=O)cc1 (stereo not shown) [CHEMBL1369396]	–	–	Active	5.58
NP(=O)(OCc1ccc([N+](=O)[O-])cc1C(F)(F)F)N(CCCl)CCCl (stereo not shown) [CHEMBL1257016]	Active	5.23	–	–
O=[N+]([O-])c1cccc(-c2c(-c3ccc(F)cc3)nc3ccccn23)c1 [CHEMBL2151874]	Inactive	4.00	–	–
N#CCC(=O)N1c2ccccc2Oc2ccccc21 [CHEMBL3758694]	Inactive	4.00	–	–
COc1cc(OC)c(-c2ccc(OC)c3c(OC)cc(C)cc23)c2c1C(C)=N[C@@H](C)C2 [CHEMBL390586]	Inactive	4.00	–	–
NCCOc1cc(C(=O)Nc2cc(OCCN)c3ccccc3n2)nc(C(=O)Nc2cc(OCCN)c3ccccc3n2)c1 [CHEMBL2349416]	–	–	Active	5.30
Cc1cccc2cc(/C=C/C(=O)c3ccc(Br)s3)c(Cl)nc12 [CHEMBL1940870]	–	–	Active	5.70
Cn1cc(C2N(c3ccccc3)C(=O)C2(c2ccccc2)c2ccccc2)c2ccccc21 (stereo not shown) [CHEMBL2071560]	–	–	Active	5.85
O=C(/C=C/c1ccc(-n2ccnc2)cc1)c1c(Cl)cccc1Cl [CHEMBL571070]	–	–	Active	5.71
Cc1cccc2oc(=O)c3c(c12)O[C@@H](C)[C@@]3(C)CC(=O)[C@@H]1OC1(C)C [CHEMBL465559]	Inactive	4.43	–	–
CC(C)(O)[C@@H]1CC[C@](C)([C@H]2[C@@H](O)C[C@@]3(C)[C@@H]4C[C@H](O)[C@H]5C(C)(C)[C@@H](O[C@@H]6OC[C@@H](O)[C@H](O)[C@H]6O)CC[C@@]56C[C@@]46CC[C@]23C)O1 [CHEMBL500607]	Inactive	4.25	–	–
COc1ccc(C(=O)/C=C/c2ccc(-n3ccnc3)cc2)cc1OC [CHEMBL570484]	–	–	Active	5.61
O=[N+]([O-])c1cn2c(n1)OC[C@H](Oc1ccc(OC(F)(F)F)cc1)C2 [CHEMBL4078293]	–	–	Active	5.63
COc1cccc(/C=C/C(=O)C2=Cc3cc(Cl)ccc3OC2)c1OC [CHEMBL1095287]	–	–	Active	5.55
COc1ccccc1-c1nnc(-c2ccc(C(=O)N/N=C/c3cccnc3)cc2)o1 [CHEMBL4090822]	Inactive	4.33	–	–
COc1ccccc1C(=O)N/N=C/c1ccc(O)c(O)c1 [CHEMBL2382034]	–	–	Active	5.48
CN(C)c1ccc(Nc2c3ccccc3nc3ccccc23)cc1 [CHEMBL34941]	–	–	Active	6.05
CC(=O)Oc1ccc(-c2c(-c3ccccc3)nc3ccccn23)cc1 [CHEMBL2151860]	Inactive	4.80	–	–
COc1ccc(-c2c(-c3ccccc3)nc3ccccn23)cc1 [CHEMBL2151858]	Active	5.14	–	–
